# Assay results from PMC12677599 (Advanced Science, 2025).
# Several values for one entry are separate records, joined by “and”; a condition that tells them apart may be missing. Equal values may be shown once. Read-outs that look alike come from different tables or passages of the source. Where a SMILES comes first, the peptide text is derived from it. [ ]: non-standard residue; d: D form. The star is where a group is joined. PEG4 = NCCOCCOCCOCCOCCC(=O)O; Piperidide = C1CCN(*)CC1
# Assays:
# HEK-293 normal cell line = test: cells; format: cell-based
# Protocol: (§1) MTT assay was conducted as previously described.^[ [44] ^] Tumor cell lines (NCI‐H460, NCI‐H838, HT‐1080, MCF‐7, PC‐3, U‐251‐MG, and U‐87 MG) were seeded in 96‐well plates at a density of 8000 cells per well in a volume of 100 µL and cultured for 24 h. Normal cell lines (HaCaT, HMEC‐1, MRC‐5, and HEK‐293) were seeded in 96‐well plates at a density of 10 000 cells per well in a volume of 100 µL and cultured for 48 h. After that, only tumor cell lines were starved with 100 µL of SFM for a further 4–6 h. Subsequently, cells were treated with 100 µL of compound solutions with different concentrations for 24 h. Cells treated with SFM and 0.5% DMSO in SFM served as blank control and growth control, respectively. Ten µL of MTT solution (5 mg mL^−1) was added to each well, followed by an additional incubation period of 2 h for tumor cells and 4 h for normal cells. Finally, the solvent in each well was swapped with 100 µL of DMSO to dissolve the formazan crystals. The absorbance was measured by the plate reader at 570 nm.
# (§2) The cell viability was calculated (1) Cellviability%=ODSamplegroup−ODBlank/ODGrowthgroup−ODBlank×100%
# H460 cell line = test: cells; format: cell-based
# Protocol: as §1, §2
# erythrocytes = format: cell-based; details: red cells of horse, 2 h
# Protocol: Defibrinated horse blood (1 mL) was washed 3 times with 0.9% NaCl solution to remove plasma and then resuspended in 20 mL of 0.9% NaCl solution to obtain a red blood cell (RBC) suspension. Aliquots of the RBC suspension (100 µL) were incubated with 100 µL of compound solutions at concentrations ranging from 100 to 1.5625 µM (twofold serial dilution) for 2 h at 37 °C. RBCs treated with 0.9% NaCl solution and 1% Triton X‐100 solution served as blank and positive controls, respectively. Subsequently, the samples were centrifuged at 900 × g for 10 min, and the absorbance of the supernatant was measured at 570 nm.
# The hemolysis ratio was calculated as (2) Hemolysis%=ODSamplegroup−ODBlank/ODPositivegroup−ODBlank×100%
# [1] = 50% human serum (from human male AB plasma, US origin; centrifuged to remove the lipid content); details: 37 °C, up to 24 h
cleaved bond [1],Compound,IC50 (HEK-293 normal cell line; 24 h),IC50 (H460 cell line; 24 h),HC10 (concentration causing 10% of erythrocytes lysis) (erythrocytes),other results
,CC[C@H](C)[C@H](NC(=O)[C@H](CCCCN)NC(=O)[C@@H]1CCCN1C(=O)[C@H](CC(C)C)NC(=O)[C@@H](NC(=O)[C@H](CO)NC(=O)[C@H](CCC(=O)N1CCCCC1)NC(=O)[C@H](CC(C)C)NC(=O)[C@H](CC(=O)O)NC(=O)[C@H](CC(=O)O)NC(=O)[C@H](Cc1ccccc1)NC(=O)[C@@H](NC(=O)[C@H](CCCCN)NC(=O)[C@@H]1CCCN1C(=O)[C@H](Cc1ccccc1)NC(=O)[C@H](Cc1ccccc1)NC(=O)[C@H](CCC(=O)O)NC(=O)[C@H](C)N)[C@@H](C)CC)[C@@H](C)CC)C(=O)N[C@@H](CC(C)C)C(N)=O [239-1] (H-AEFFPKIFDDLE(Piperidide)SILPKIL-NH2),> 100 µM,88.2 µM,97.64 µM,
,CC[C@H](C)[C@H](NC(=O)[C@H](CCCCN)NC(=O)[C@@H]1CCCN1C(=O)[C@H](CC(C)C)NC(=O)[C@@H](NC(=O)[C@H](CO)NC(=O)[C@H](CCC(=O)N1CCCCC1)NC(=O)[C@H](CC(C)C)NC(=O)[C@H](CC(=O)O)NC(=O)[C@H](CC(=O)O)NC(=O)[C@H](Cc1ccccc1)NC(=O)[C@@H](NC(=O)[C@H](CCCCN)NC(=O)[C@@H]1CCCN1C(=O)[C@H](Cc1ccccc1)NC(=O)[C@H](Cc1ccccc1)NC(=O)[C@H](CCCNC(=N)N)NC(=O)[C@H](C)N)[C@@H](C)CC)[C@@H](C)CC)C(=O)N[C@@H](CC(C)C)C(N)=O [239-3] (H-ARFFPKIFDDLE(Piperidide)SILPKIL-NH2),15 ± 1.38 µM,14.7 ± 1.22 µM,24.72 µM,
,CC[C@H](C)[C@H](NC(=O)[C@H](CCCCN)NC(=O)[C@@H]1CCCN1C(=O)[C@H](CC(C)C)NC(=O)[C@@H](NC(=O)[C@H](CO)NC(=O)[C@H](CCC(=O)N1CCCCC1)NC(=O)[C@H](CC(C)C)NC(=O)[C@H](CC(=O)O)NC(=O)[C@H](CC(=O)O)NC(=O)[C@H](Cc1ccccc1)NC(=O)[C@@H](NC(=O)[C@H](CCCCN)NC(=O)[C@@H]1CCCN1C(=O)[C@H](Cc1ccccc1)NC(=O)[C@@H](N)Cc1ccccc1)[C@@H](C)CC)[C@@H](C)CC)C(=O)N[C@@H](CC(C)C)C(=O)NCC(=O)NCC(=O)NCC(=O)NCC(=O)NCC(=O)NCC(=O)NCC(=O)NCCOCCOCCOCCOCCC(=O)NCCOCCOCCOCCOCCC(=O)NCCOCCOCCOCCOCCC(=O)NCCOCCOCCOCCOCCC(N)=O [compound 288] (H-FFPKIFDDLE(Piperidide)SILPKILGGGGGGG[PEG4][PEG4][PEG4][PEG4]-NH2),> 100 µM,> 100 µM,>100 µM,
Ala-E,AEFFPKIFDDLE(PIP)SILPKIL-NH2,,,,
,"CC(=O)O[C@H]1C(=O)[C@@]2(C)[C@H]([C@H](OC(=O)c3ccccc3)[C@]3(O)C[C@H](OC(=O)[C@H](O)[C@@H](NC(=O)c4ccccc4)c4ccccc4)C(C)=C1C3(C)C)[C@]1(OC(C)=O)CO[C@@H]1C[C@@H]2O [Paclitaxel, paclitaxel, reference compound]",,,,"IC50 (HEK-293 normal cell line; Homo sapiens, HEK293, Table S11, MTT, read-out: IC50 Value of chemotherapeutics, HEK-293): < 7 µM; IC50 (H460 cell line; Homo sapiens, NCI-H460, Table S11, MTT, read-out: IC50 Value of chemotherapeutics, H460): 220 ± 65 µM"
"F-F, major",ATFFPKIFDDLE(PIP)SILPKIL-NH2,,,,
,"O=c1[nH]cc(F)c(=O)[nH]1 [5-Fluorouracil, 5-fluorouracil, reference compound]",,,,"IC50 (HEK-293 normal cell line; Homo sapiens, HEK293, read-out: IC50 Value of chemotherapeutics, HEK-293): 430 ± 40.2 µM; IC50 (H460 cell line; Homo sapiens, NCI-H460, read-out: IC50 Value of chemotherapeutics, H460): 432 ± 61.2 µM"
,CC[C@H](C)[C@H](NC(=O)[C@H](CCCCN)NC(=O)[C@@H]1CCCN1C(=O)[C@H](CC(C)C)NC(=O)[C@@H](NC(=O)[C@H](CO)NC(=O)[C@H](CCC(=O)N1CCCCC1)NC(=O)[C@H](CC(C)C)NC(=O)[C@H](CC(=O)O)NC(=O)[C@H](CC(=O)O)NC(=O)[C@H](Cc1ccccc1)NC(=O)[C@@H](NC(=O)[C@H](CCCCN)NC(=O)[C@@H]1CCCN1C(=O)[C@H](Cc1ccccc1)NC(=O)[C@@H](N)Cc1ccccc1)[C@@H](C)CC)[C@@H](C)CC)C(=O)N[C@@H](CC(C)C)C(=O)NCC(=O)N1CCC[C@H]1C(=O)N[C@@H](CC(C)C)C(=O)NCC(=O)N[C@@H](CC(C)C)C(=O)N[C@@H](C)C(=O)NCC(=O)NCCOCCOCCOCCOCCC(N)=O [compound 204] (H-FFPKIFDDLE(Piperidide)SILPKILGPLGLAG[PEG4]-NH2),34.1 ± 3.41 µM,20 ± 1.05 µM,46.10 µM,
,CC[C@H](C)[C@H](NC(=O)[C@H](CCCCN)NC(=O)[C@@H]1CCCN1C(=O)[C@H](CC(C)C)NC(=O)[C@@H](NC(=O)[C@H](CO)NC(=O)[C@H](CCC(=O)N1CCCCC1)NC(=O)[C@H](CC(C)C)NC(=O)[C@H](CC(=O)O)NC(=O)[C@H](CC(=O)O)NC(=O)[C@H](Cc1ccccc1)NC(=O)[C@@H](NC(=O)[C@H](CCCCN)NC(=O)[C@@H]1CCCN1C(=O)[C@H](Cc1ccccc1)NC(=O)[C@@H](N)Cc1ccccc1)[C@@H](C)CC)[C@@H](C)CC)C(=O)N[C@@H](CC(C)C)C(=O)NCC(=O)N1CCC[C@H]1C(=O)N[C@@H](CC(C)C)C(=O)NCC(=O)N[C@@H](CC(C)C)C(=O)N[C@@H](C)C(=O)NCC(=O)NCCOCCOCCOCCOCCC(=O)NCCOCCOCCOCCOCCC(N)=O [compound 207] (H-FFPKIFDDLE(Piperidide)SILPKILGPLGLAG[PEG4][PEG4]-NH2),44.2 ± 3.21 µM,28 ± 1.59 µM,69.26 µM,
Ala-K,AKFFPKIFDDLE(PIP)SILPKIL-NH2,,,,
Phe1-F,FFPKIFDDLE(PIP)SILPKILGPLGLAG-(PEG4)4-NH2,,,,
,"N.N.[Cl][Pt][Cl] [Cisplatin, cisplatin, reference compound]",,,,"IC50 (HEK-293 normal cell line; Table S11, MTT, read-out: IC50 Value of chemotherapeutics, HEK-293): 162 ± 18.8 µM; IC50 (H460 cell line; Table S11, MTT, read-out: IC50 Value of chemotherapeutics, H460): 203 ± 26.9 µM"
,CC[C@H](C)[C@H](NC(=O)[C@H](CCCCN)NC(=O)[C@@H]1CCCN1C(=O)[C@H](CC(C)C)NC(=O)[C@@H](NC(=O)[C@H](CO)NC(=O)[C@H](CCC(=O)N1CCCCC1)NC(=O)[C@H](CC(C)C)NC(=O)[C@H](CC(=O)O)NC(=O)[C@H](CC(=O)O)NC(=O)[C@H](Cc1ccccc1)NC(=O)[C@@H](NC(=O)[C@H](CCCCN)NC(=O)[C@@H]1CCCN1C(=O)[C@H](Cc1ccccc1)NC(=O)[C@H](Cc1ccccc1)NC(=O)[C@@H](NC(=O)[C@H](C)N)[C@@H](C)O)[C@@H](C)CC)[C@@H](C)CC)C(=O)N[C@@H](CC(C)C)C(N)=O [239-2] (H-ATFFPKIFDDLE(Piperidide)SILPKIL-NH2),44.8 ± 4.06 µM,36.8 ± 3.25 µM,57.04 µM,
"R-F, major",ARFFPKIFDDLE(PIP)SILPKIL-NH2,,,,
,CC[C@H](C)[C@H](NC(=O)[C@H](CCCCN)NC(=O)[C@@H]1CCCN1C(=O)[C@H](CC(C)C)NC(=O)[C@@H](NC(=O)[C@H](CO)NC(=O)[C@H](CCC(=O)N1CCCCC1)NC(=O)[C@H](CC(C)C)NC(=O)[C@H](CC(=O)O)NC(=O)[C@H](CC(=O)O)NC(=O)[C@H](Cc1ccccc1)NC(=O)[C@@H](NC(=O)[C@H](CCCCN)NC(=O)[C@@H]1CCCN1C(=O)[C@H](Cc1ccccc1)NC(=O)[C@H](Cc1ccccc1)NC(=O)[C@H](CCCCN)NC(=O)[C@H](C)N)[C@@H](C)CC)[C@@H](C)CC)C(=O)N[C@@H](CC(C)C)C(N)=O [239-4] (H-AKFFPKIFDDLE(Piperidide)SILPKIL-NH2),31.5 ± 4.28 µM,22.2 ± 1.06 µM,25.61 µM,
,AK(Ac)FFPKIFDDLE(PIP)SILPKIL-NH2,,,,fragment found [1]: 239-4-Ac-1 FPKIFDDLE(PIP)SILPKIL-NH2 and 239-4-Ac-2 FFPKIFDDLE(PIP)SILPKIL-NH2
Phe1-F,FFPKIFDDLE(PIP)SILPKIL-NH2,,,,
,AKFFPKIFDDLE(PIP)SILPKILGPLGLAG-(PEG4)6-NH2,,,,not cleaved [1]: nearly 100% remaining ratio after 24 h
